Experimental data published in patent US11207291B2, “Antimicrobial compositions comprising cannabinoids and methods of using the same” (Graphium Biosciences, Inc., priority 2017, dated 2021).
In brackets after ≈: the same amount, converted by molar mass.

Columns and labels:
S. pyogenes MMX 404 = assay: MIC/MBC testing (Example 5); assay type: cell-based; settings: Streptococcus pyogenes, MMX404; Example 5; read-out: MIC
E. faecalis MMX 848 = assay: MIC/MBC testing (Example 5); assay type: cell-based; settings: Enterococcus faecalis, MMX848; Example 5; read-out: MIC
S. aureus ATCC 29213 = assay: MIC/MBC testing (Example 5); assay type: cell-based; settings: Staphylococcus aureus, ATCC29213; Example 5; read-out: MIC
S. aureus MMX 757 = assay: MIC/MBC testing (Example 5); assay type: cell-based; settings: Staphylococcus aureus, MMX757; Example 5; read-out: MIC
S. pneumoniae ATCC 49619 = assay: MIC/MBC testing (Example 5); assay type: cell-based; settings: Streptococcus pneumoniae, ATCC49619; Example 5; read-out: MIC
E. faecalis ATCC 29212 = assay: MIC/MBC testing (Example 5); assay type: cell-based; settings: Enterococcus faecalis, ATCC29212; Example 5; read-out: MIC
E. coli ATCC 25922 = assay: MIC/MBC testing (Example 5); assay type: cell-based
Bifidobacterium bifidum = assay: Broth microdilution MIC, anaerobic bacteria (Example 1); assay type: cell-based; settings: Example 1; isolate MMX 3965
[1] = test system: Enterococcus faecalis (VRE); assay: microbe, parasite or virus in culture; assay type: cell-based; settings: Example 1; isolate MMX 848
[2] = test system: Klebsiella pneumoniae (KPC-2); assay type: cell-based; settings: Example 1; isolate MMX 4683
Streptococcus pneumoniae = assay: Broth microdilution MIC, aerobic bacteria (Example 1); assay type: cell-based; settings: Example 1; isolate MMX 1195 (ATCC 49619)
Candida parapsilosis = assay: Broth microdilution MIC, yeast and fungi (Example 1); assay type: cell-based
[3] = Bioavailability assay: VB110 and CBD decoupling analysis of intestinal contents (Example 2); assay type: in vivo; settings: mice, oral gavage 120 mg/kg VB110
Experimental: In order to investigate the effectiveness of glycosylation to effect site-specific drug delivery, VB110 was administered to three mice by oral gavage and the animals sacrificed at 30, 60, and 90 minutes. Eight-week old male Swiss mice were fasted for 12 hours prior to administration of 120 mg/kg VB110 in 10% Ethanol USP, 10% Propylene Glycol USP, 0.05% Sodium Deoxycholate USP, 79.95% Saline USP. Following termination and tissue harvest, the intestinal contents were then extracted and analyzed by C18 reverse phase HPLC. […] This decoupling of VB110 is consistent with the large intestinal decoupling seen for sennoside beta-glycosides and is the result of secreted beta-glycosidases from the large intestinal microflora.

Clostridium difficile = assay: Broth microdilution MIC, anaerobic bacteria (Example 1); assay type: cell-based; settings: Example 1
[4] = test system: Staphylococcus aureus (MSSA); assay: Broth microdilution MIC, aerobic bacteria (Example 1); assay type: cell-based; settings: isolate MMX 100 (ATCC 29213)
[5] = Compound precipitation in uninoculated solubility controls (Example 1); assay type: physicochemical; set-up: key to precipitation observed (type): NA: not applicable (no precipitation observed); TRP: trace precipitate; DCP: distinct precipitate
Experimental: Plates were stacked 3-4 high, covered with a lid on the top plate, placed in plastic bags, and incubated at 35° C. for approximately 16 to 20 hr (aerobes), 20 to 24 hr (Streptococcus), and 24 and 48 hr (fungi). Anaerobe plates were stacked, covered with a lid on the top plate, placed in a BD GasPak EZ Anaerobe Container System and incubated at 35° C. for 48 hr. Following incubation, the microplates were removed from the incubator and viewed from the bottom using a plate viewer. […] The MIC was read and recorded as the lowest concentration of drug that inhibited visible growth of the organism.

[6] = test system: Enterococcus faecalis (VSE); assay: Broth microdilution MIC, aerobic bacteria (Example 1); assay type: cell-based; settings: isolate MMX 101 (ATCC 29212)
Streptococcus pyogenes = assay: as above; assay type: cell-based; settings: isolate MMX 404
Lactobacillus crispatus = assay: Broth microdilution MIC, anaerobic bacteria (Example 1); assay type: cell-based; settings: Example 1; isolate MMX 4147
Bifidobacterium longum = assay: as above; assay type: cell-based; settings: Example 1; isolate MMX 3968
Bacteroides fragilis = assay: as above; assay type: cell-based; settings: Example 1; isolate MMX 123 (ATCC 5285)
Pseudomonas aeruginosa = assay: Broth microdilution MIC, aerobic bacteria (Example 1); assay type: cell-based; settings: Example 1; isolate MMX 1380
Escherichia coli = assay: as above; assay type: cell-based; settings: isolate MMX 102 (ATCC 25922)
Acinetobacter baumannii = assay: as above; assay type: cell-based; settings: Example 1; isolate MMX 1630
[7] = test system: Staphylococcus aureus (MRSA); assay: microbe, parasite or virus in culture; assay type: cell-based; settings: Example 1; isolate MMX 757
Aspergillus fumigatus = assay: Broth microdilution MIC, yeast and fungi (Example 1); assay type: cell-based; settings: isolate MMX 5280 (ATCC MYA-3626)
Lactobacillus jensenii = assay: Broth microdilution MIC, anaerobic bacteria (Example 1); assay type: cell-based; settings: Example 1; isolate MMX 4149

C[C@@H](O)[C@H]1C(=O)N2C(C(=O)O)=C(SCCN=CN)C[C@H]12 [Imipenem]
MIC (S. pyogenes MMX 404): ≤ 0.008 µg/mL | MIC (E. faecalis MMX 848): 1 µg/mL (≈ 3.34 µM) | MIC (S. aureus ATCC 29213): 0.015 µg/mL (≈ 0.0501 µM) | MIC (S. aureus MMX 757): 4 µg/mL (≈ 13.4 µM) | MIC (S. pneumoniae ATCC 49619): 0.015 µg/mL (≈ 0.0501 µM) | MIC (E. faecalis ATCC 29212): 0.5 µg/mL (≈ 1.67 µM) | MBC (E. coli ATCC 25922; Escherichia coli, ATCC25922, Example 5, quality control MBC test): 0.12 µg/mL (≈ 0.401 µM) | MIC (E. coli ATCC 25922; Escherichia coli, ATCC25922, Example 5, read-out: MIC): 0.12 µg/mL (≈ 0.401 µM) | MBC:MIC (E. coli ATCC 25922; ratios of 1-4 are indicative of bactericidal activity): 1

C=C(C)[C@@H]1CCC(C)=C[C@H]1c1c(O[C@@H]2O[C@H](CO)[C@@H](O)[C@H](O)[C@H]2O)cc(CCCCC)cc1O[C@@H]1O[C@H](CO)[C@@H](O)[C@H](O)[C@H]1O [VB110]
MIC (Bifidobacterium bifidum): >256 µg/mL | MIC [1]: >256 µg/mL | MIC [2]: >256 µg/mL | MIC (Streptococcus pneumoniae): >256 µg/mL | inhibition of growth relative to the growth control (Candida parapsilosis; 24 and 48 hr, concentrations >16 μg/mL): 50% | MIC at 24 hr (Candida parapsilosis; Example 1, 24 hr, isolate MMX 2323 (ATCC 22019)): >256^2, μg/mL | MIC at 48 hr (Candida parapsilosis; Example 1, 48 hr, isolate MMX 2323 (ATCC 22019)): >256^2 μg/mL | small intestinal contents (HPLC) ([3]; 30, 60, and 90 minutes): intact VB110, but no decoupled CBD | large intestinal contents (HPLC) ([3]; 60 and 90 minute time points): contained both VB110 and CBD | MIC (Clostridium difficile; isolate MMX 4381 (ATCC 00057)): >256 µg/mL | MIC (Clostridium difficile; isolate MMX 8330): >256 µg/mL | MIC (Clostridium difficile; isolate MMX 8333): >256 µg/mL | MIC [4]: >256 µg/mL | precipitation observed (type) ([5]; MHB II): none | lowest concentration at which precipitation was observed ([5]; RPMI): 32 µg/mL | precipitation observed (type) ([5]; RPMI): TRP | MIC [6]: >256 µg/mL | MIC (Streptococcus pyogenes): >256 µg/mL | MIC (Lactobacillus crispatus): >256 µg/mL | MIC (Bifidobacterium longum): >256 µg/mL | MIC (Bacteroides fragilis): >256 µg/mL | MIC (Pseudomonas aeruginosa): >256 µg/mL | MIC (Escherichia coli): >256 µg/mL | MIC (Acinetobacter baumannii): >256 µg/mL | MIC [7]: >256 µg/mL | MIC at 24 hr (Aspergillus fumigatus; 24 hr): >256, μg/mL | MIC at 48 hr (Aspergillus fumigatus; 48 hr): >256 µg/mL | MIC (Lactobacillus jensenii): >256 µg/mL
